Test results from PMC6904214, “A novel lineage of candidate pheromone receptors for sex communication in moths” (eLife, 2019).

Target: T1, SlitOR5/SlitOrco (Spodoptera littoralis, UniProt A0A5J6NJF6)
T1 construct: full-length open reading frames (SlitOr5 1191 bp) in pCS2+, cRNAs co-injected in Xenopus oocytes; heteromer with co-receptor Orco; with Odorant receptor coreceptor
T1 sequence (A0A5J6NJF6 1-397): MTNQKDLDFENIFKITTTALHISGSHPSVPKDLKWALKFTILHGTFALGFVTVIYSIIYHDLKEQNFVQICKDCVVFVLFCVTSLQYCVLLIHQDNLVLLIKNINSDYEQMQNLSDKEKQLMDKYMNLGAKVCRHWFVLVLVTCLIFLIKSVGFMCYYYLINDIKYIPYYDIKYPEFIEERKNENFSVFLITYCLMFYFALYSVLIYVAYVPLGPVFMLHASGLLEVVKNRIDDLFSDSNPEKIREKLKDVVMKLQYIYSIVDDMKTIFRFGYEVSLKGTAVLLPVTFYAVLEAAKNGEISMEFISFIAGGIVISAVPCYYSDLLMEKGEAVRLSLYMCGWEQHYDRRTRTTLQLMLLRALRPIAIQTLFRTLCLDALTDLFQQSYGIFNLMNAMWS
T1 sequence (B6C755 1-473 partner): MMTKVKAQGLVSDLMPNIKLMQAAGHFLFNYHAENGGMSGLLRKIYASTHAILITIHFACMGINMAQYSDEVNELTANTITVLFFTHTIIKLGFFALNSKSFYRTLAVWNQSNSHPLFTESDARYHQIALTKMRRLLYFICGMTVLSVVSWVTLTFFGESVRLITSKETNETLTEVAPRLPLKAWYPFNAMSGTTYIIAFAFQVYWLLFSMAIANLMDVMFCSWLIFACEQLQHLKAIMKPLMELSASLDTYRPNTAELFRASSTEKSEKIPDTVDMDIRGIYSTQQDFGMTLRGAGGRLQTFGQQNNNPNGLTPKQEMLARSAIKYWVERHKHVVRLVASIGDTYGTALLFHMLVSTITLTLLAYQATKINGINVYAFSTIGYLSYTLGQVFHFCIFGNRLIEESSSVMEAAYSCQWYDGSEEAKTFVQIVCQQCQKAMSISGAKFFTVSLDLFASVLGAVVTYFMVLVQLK
Assay: two-electrode voltage clamp, inward current in Xenopus oocytes
Format: cell-based

## CC/C=C/C=C\CCCCCCCCOC(C)=O [(Z,E)-9,11-14:OAc, (Z,E)-9,11-tetradecadienyl acetate]
  EC50: 171 nM
